Where only a bound is given, the exact number is not on record here.

The subject of this test is RBL-2H3. Kind of test: Inhibition of DNP-BSA-induced degranulation in rat RBL2H3 cells assessed as reduction in beta-hexosaminidase release after 20 mins by spectrophotometry. It is filed as functional, cell-based. The conditions noted are these: RBL-2H3, 20 min.
In the case of `C=CC(/C=C/c1ccc(O)cc1)c1ccc(O)cc1` (stereo not given), the IC50 (in general, the concentration needed to halve the response being measured) is 55.2 µM.
For the molecule `C=CC(CC(=O)c1ccc(OC)cc1)c1ccc(OC)cc1` (stereo not given), the 50% inhibitory concentration (IC50) came to 88.5 µM.
In the case of `C=CC(CC(=O)c1ccc(O)cc1)c1cccc(O)c1` (stereo not given), the IC50 came out at 18.3 µM.
For `C=CC(CC(=O)c1ccc(OC)cc1)c1cccc(OC)c1` (stereo not given), the half-inhibitory concentration (IC50) was found to be 85.4 µM.
As to `C=CC(CC(=O)c1ccc(O)cc1)c1cccc(OC)c1` (stereo not given), the IC50 turned out to be 17.9 µM.
As to `C=CC(CC(=O)c1ccc(OC)cc1)c1cccc(O)c1` (stereo not given), the half-inhibitory concentration (IC50) was 90.5 µM.
Take `C=CC(CC(O)c1ccc(O)cc1)c1ccc(O)cc1` (stereo not given): the half-maximal inhibitory concentration (IC50) is > 200 µM.
On to `C=CC(CC(O)c1ccc(OC)cc1)c1ccc(OC)cc1` (stereo not given), for which the IC50 is > 200 µM.
On to `C=CC(CC(O)c1ccc(O)cc1)c1cccc(O)c1` (stereo not given), for which the IC50 came out at 34.1 µM.
For `C=CC(CC(O)c1ccc(OC)cc1)c1cccc(OC)c1` (stereo not given), the half-inhibitory concentration (IC50) was > 200 µM.
As to `C=CC(/C=C/c1ccc(OC)cc1)c1ccc(OC)cc1` (stereo not given), the IC50 is > 200 µM.
`C=CC(/C=C/c1ccc(O)cc1)c1cccc(O)c1` (stereo not given): the IC50 was 55.6 µM.
For `C=CC(/C=C/c1ccc(OC)cc1)c1cccc(OC)c1` (stereo not given), the half-maximal inhibitory concentration (IC50) was > 200 µM.
In the case of `C=CC(CC(=O)c1ccc(O)cc1)c1ccc(O)cc1` (stereo not given), the IC50 worked out at 34.6 µM.
For the molecule `CN1CCC(=C2c3ccccc3CC(=O)c3sccc32)CC1` [KETOTIFEN], the 50% inhibitory concentration (IC50) was 35.2 µM.

Values taken from ChEMBL document CHEMBL2029333, “Synthesis of norlignans and in vitro inhibitory activity of antigen-induced degranulation” (Bioorg Med Chem Lett, 2012).
